Read-outs that look alike come from different tables or passages of the source.

Consider 12 compounds from publication PMC7230911, “Meroterpenoids from the Brown Alga Cystoseira usneoides as Potential Anti-Inflammatory and Lung Anticancer Agents” (Marine Drugs, 2020).

Test [1] deals with A549 human cancer cell line. The conditions noted are these: cited from earlier work.
Test [2] deals with LPS-stimulated RAW264.7 macrophages. Conditions: cited from earlier work.
Test [3] deals with several human cancer cell lines, including A549 cells. More on the design: method as in PMID 19271727, PMID 22920243. The conditions noted are these: mean over several human cancer cell lines; cited from earlier work.
Another test deals with A549 cells. Kind of test: Cell cycle analysis of A549 cells by flow cytometry. Format: cell-based, human. The conditions noted are these: 0.2 μg/mL, 24 h, positive control. The procedure: We next investigated whether the treatment with AMTs 1–8 caused any cell cycle-related event, which inhibit the viability of A549 cell line. Thus, the cells were treated for 24 h with the AMTs at concentrations of IC50 (Table 1), or with colchicine (at 0.2 μg/mL) as the positive control, and then subjected to flow cytometry analysis to evaluate the distribution of cells in the different phases of the cell cycle (Figure 5A).
Figure 5 Effects of meroterpenoids 1–8 on cell cycle distribution of A549 cells. Cells were incubated with IC50 doses of the compounds for 24 h. (A) Cells were harvested to measure the cell cycle distribution by flow cytometry. (B) Quantitative analysis of cell cycle distribution after treatment. Data represent mean ±SE from three independent experiments. * p < 0.05, ** p < 0.01, and *** p < 0.001 compared with the untreated group (control).
For cell cycle analysis by flow cytometry, A549 cells were seeded at 1 × 10^6 cells/well in 6-well plates and incubated for 24 h followed by treatment with the AMTs, at concentration of IC50, and further incubation for 24 h. Colchicine (final concentration of 0.2 μg/mL) was used as positive control. Cells were harvested after trypsinization and washed once with PBS. Then, the cells were centrifuged at 1500 rpm for 5 min (25 °C), the pellet was fixed with 1 mL of ice-cold 70% ethanol, and the samples were stored at −4 °C overnight. Then the cells were washed with PBS and incubated in the darkness with PBS containing 5 mg/mL of RNase A for 48 h at 4 °C. Subsequently, 50 µL of propidium iodide (0.1 mg/mL) was added and the cells were incubated for 1 h at 4 °C. The relative DNA content per cell was analyzed using a Beckman Coulter Cytomics FC 500 MPL (Beckman Coulter Inc, San Diego, CA, USA). The data acquisition was performed with the DML program. The analysis of the acquired data was performed with the CXP cytometer.
Background: In flow cytometry, cells or beads pass a laser one at a time.

In test [4] the test system is several human cancer cell lines, including A549 cell line. More on the design: method as in PMID 22775218. The conditions noted are these: cited from earlier work.

As to 5β-hydroxyaplysin, the IC50 in test [1] (read-out: IC50 towards A549) was 35.3 µM. For the compound 5β-hydroxypalisadin B, the “production of NO, TNF-α, IL-6, IL-1β and COX-2, iNOS expression (in words)” value in test [2] was “inhibit”.

Take `C=C(C)[C@@H]1CCC(C)(O)[C@H](Br)CC[C@@]2(C)C(=C(C)CC[C@@H]2Br)Cc2cc(ccc2O)C(=O)O1` (stereo partly shown) [bromophycolide M]: the half-maximal inhibitory concentration (IC50) in test [3] was 3.1 µM.

For `C=C(C)[C@@H]1CCC(C)(O)[C@H](Br)CC[C@@]2(C)[C@H](Cc3cc(ccc3O)C(=O)O1)C(C)=CC[C@@H]2Br` (stereo partly shown) [bromophycolide N], the half-maximal inhibitory concentration (IC50) in test [3] is 8.6 µM.

On to `CC1=CC[C@H](Br)[C@@]2(C)CC[C@@H](Br)C(C)(O)CC[C@@H](C(C)(C)Br)OC(=O)c3ccc(O)c(c3)C[C@H]12` (stereo partly shown) [bromophycolide O], for which, in test [3], the 50% inhibitory concentration (IC50) is 9.7 µM.

Regarding `C=C1CC[C@H](Br)[C@@]2(C)CC[C@@H](Br)[C@@]3(C)CC[C@H](OC(=O)c4ccc(O)c(c4)C[C@H]12)C(C)(C)O3` [bromophycolide P], the IC50 in test [3] is 7.9 µM. For `CC1=C2Cc3cc(ccc3O)C(=O)O[C@H]3CC[C@@](C)(OC3(C)C)[C@H](Br)CC[C@]2(C)[C@@H](Br)CC1` [bromophycolide Q], in test [3], the IC50 was 2 µM.

As for `COc1cc2c(c(OC)c1OC)-c1ccc(OC)c(=O)cc1[C@@H](NC(C)=O)CC2` [colchicine, reference compound], the “cells arrested in G2/M phase” value in the test on A549 cells is 89.88%. Turning to `C=C1C[C@H](O)[C@H](Br)C(C)(C)[C@@]12CCC(C)=C(Cl)C2` [elatol], in test [1] (read-out: IC50 towards A549), the concentration for half-maximal inhibition (IC50) was 4.8 µM. For the same compound, in test [4], the “cell cycle effect (in words)” value was “cell cycle arrest in the G1 and the sub-G1 phases”. `CC(C)[C@@H]1CC=C[C@H]2[C@H]3[C@@](C)(C=CC(=O)[C@@]3(C)O)CC[C@]12CBr` [sphaerococcenol A]: in test [1] (read-out: IC50 growth of A549 cells), the IC50 was 3.7 µM. As to bromophycoic acid D, the IC50 in test [3] was 6.8 µM. Regarding nerogioltriol, in test [2], the “activation of NFκB and production of NO, TNF-α and COX-2 (in words)” value is recorded as “inhibit”.

One may read the IC50 as the concentration at which inhibition is half-maximal.
